How the values were obtained:
HBV [1] = assay: Humanized mouse model of HBV infection in human-murine liver chimeric mice; assay type: in vivo, FRG KO mice; design: unit not given here; settings: n=6
Description: (asterisks), the group treated with illustrative compound 46 at 3 mg/kg p.o. q.d. (asterisks), the group treated with illustrative compound 46 at 30 mg/kg p.o. q.d. (filled squares), the group treated with illustrative compound 44 at 1 mg/kg p.o. q.d. (crosses), and the group treated with illustrative compound 44 at 10 mg/kg p.o. q.d. (filled circles).
Six to ten weeks old male or female FRG KO mice (Fah-/-/Rag2-/-/Il2rg-/-triple knock-out - Yecuris Corporation P.O. Box 4645, Tualatin, OR 97062, USA) are used. They are provided with filtered tap water and standard chow ad libitum and maintained at 22 ± 2°C in 55 ± 10% humidity on a 12h light/dark cycle.
Each mouse is repopulated by intra splenic injection of 1 to 2 10^6 human hepatocytes (Life Technologies ref HMCS2SA). To allow a progressive and efficacious repopulation, drinking water is regularly supplemented with Nitisinone (Yecuris, lot TNAK0002). The repopulation rate is controlled by hAlb dosage in serum (Euromedex ref E88-129). About 3 to 4 months after the human hepatocyte injection, mice for which repopulation is successful reach an hAlb level >1g/L and can be used for HBV infection.
The test compounds for p.o administration are formulated in Solutol at 2% (Sigma : Kolliphor hS15 12966-1kg lot BCBM0868V) and methylcellulose 0.5% at 98%
Each mouse is injected with HBV-2015 batch ([…]) with an inoculum of 1.38 10^8 GE HBV (0.2 mL) via tail vein.
Six to seven weeks after infection, blood is sampled under isoflurane anesthesia by retro-orbital puncture. HBsAg is dosed in serum by Elisa assay (Immunodiagnostic, ref HBSAG EIA). HBV DNA level is measured in the mice serum using qPCR (SYBR green). Only mice reaching HBsAg level above 1000UI/mL are kept and randomized.
Treatment is given for 5 weeks according to body weight.
Body weight is recorded every week.
Between Day 7 and Day 11, a steady state PK is performed with sampling of blood under isoflurane anesthesia by retro-orbital puncture at T=0, 1h, 3h, 6h post treatment. Plasma are frozen before decontamination with ethanol absolute 80% and transfer to bioanalysis laboratory for compound dosage by LCMS-MS.
At […], D8, D15, D22 and D28, blood is sampled under isoflurane anesthesia by retro-orbital puncture. To follow compounds efficacy, HBsAg is dosed in serum by Elisa assay (Immunodiagnostic, ref HBSAG EIA) and HBV DNA level is measured in serum using qPCR (SYBR green).
After 5 weeks of treatment, mice are euthanized 2 hours after the last dosing for liver and blood collection.
In blood HBsAg is measured by Elisa assay, HBV DNA by qPCR and compound level by LCMS-MS.
In liver HBV DNA is measured by qPCR, compound level by LCMS-MS, pgRNA by RT-qPCR, HBcAg by immunohistochemistry (Dako ref B0586).
When subjected to this protocol, the following results for illustrative compounds of the invention are obtained. Table VII. Infected mice HBsAg blood level variation

HBV [2] = assay: as above; assay type: in vivo, FRG KO mice; design: unit not given here; settings: D1, mean, n=6

COCCCOc1cc2c(cc1F)-c1c(cc(C(=O)O)c(=O)n1C1CC1)[C@H](C(C)C)O2 [Compound 44, (5S)-1-cyclopropyl-9-fluoro-5-isopropyl-8-(3-methoxypropoxy)-2-oxo-5H-chromeno[4,3-b]pyridine-3-carboxylic acid]
Infected mice HBsAg blood level (HBV [1]; 1 mg/kg p.o q.d, D1, mean): 4.5 | Infected mice HBsAg blood level (HBV [1]; 1 mg/kg p.o q.d, D8, mean): 3.6 | Infected mice HBsAg blood level (HBV [1]; 1 mg/kg p.o q.d, D15, mean): 3.5 | Infected mice HBsAg blood level (HBV [1]; 1 mg/kg p.o q.d, D22, mean): 3.5 | Infected mice HBsAg blood level (HBV [1]; 1 mg/kg p.o q.d, D28, mean): 3.6 | Infected mice HBsAg blood level (HBV [1]; 10 mg/kg p.o q.d, D1, mean): 4.4 | Infected mice HBsAg blood level (HBV [1]; 10 mg/kg p.o q.d, D8, mean): 3.4 | Infected mice HBsAg blood level (HBV [1]; 10 mg/kg p.o q.d, D15, mean): 3.5 | Infected mice HBsAg blood level (HBV [1]; 10 mg/kg p.o q.d, D22, mean): 3.4 | Infected mice HBsAg blood level (HBV [1]; 10 mg/kg p.o q.d, D28, mean): 3.4

COCCCOc1cc2c(cc1Cl)-c1c(cc(C(=O)O)c(=O)n1C1CC1)[C@H](C1(C)COC1)O2 [Compound 46, (5R)-9-chloro-1-cyclopropyl-8-(3-methoxypropoxy)-5-(3-methyloxetan-3-yl)-2-oxo-5H-chromeno[4,3-b]pyridine-3-carboxylic acid]
Infected mice HBsAg blood level (HBV [1]; 0.3 mg/kg p.o q.d, D8, mean): 3.7 | Infected mice HBsAg blood level (HBV [1]; 0.3 mg/kg p.o q.d, D15, mean): 3.8 | Infected mice HBsAg blood level (HBV [1]; 0.3 mg/kg p.o q.d, D22, mean): 3.9 | Infected mice HBsAg blood level (HBV [1]; 0.3 mg/kg p.o q.d, D28, mean): 3.7 | Infected mice HBsAg blood level (HBV [1]; 3 mg/kg p.o q.d, D8, mean): 3.4 | Infected mice HBsAg blood level (HBV [1]; 3 mg/kg p.o q.d, D15, mean): 3.4 | Infected mice HBsAg blood level (HBV [1]; 3 mg/kg p.o q.d, D22, mean): 3.4 | Infected mice HBsAg blood level (HBV [1]; 3 mg/kg p.o q.d, D28, mean): 3.4 | Infected mice HBsAg blood level (HBV [1]; 30 mg/kg p.o q.d, D1, mean): 4.4 | Infected mice HBsAg blood level (HBV [1]; 30 mg/kg p.o q.d, D8, mean): 3.5 | Infected mice HBsAg blood level (HBV [1]; 30 mg/kg p.o q.d, D15, mean): 3.5 | Infected mice HBsAg blood level (HBV [1]; 30 mg/kg p.o q.d, D22, mean): 3.4 | Infected mice HBsAg blood level (HBV [1]; 30 mg/kg p.o q.d, D28, mean): 3.5 | Infected mice HBsAg blood level (HBV [2]; 0.3 mg/kg p.o q.d): 4.4 | Infected mice HBsAg blood level (HBV [2]; 3 mg/kg p.o q.d): 4.4
